Key:
[1] = Tablet dissolution in 50 mM sodium acetate buffer pH 5.0 with 2.0% w/v Polysorbate 80 and 0.001% w/v BHT, 75 rpm, 900 mL, 37° C., USP Type II; type: physicochemical
Procedure: FIGS. 10-12 depict additional dissolution profiles for the sofosbuvir/velpatasvir SSD/voxilaprevir SSD tablets having the formulation described in Table 13 and which were used in phase 1, 2, and 3 clinical studies, where the dissolution testing was conducted at pH 5.0 acetate buffer containing 2.0% w/v polysorbate 80. Four batches of the sofosbuvir/velpatasvir SSD/voxilaprevir SSD tablets were tested, with Batch A manufactured at 100 kg and Batches B, C and D manufactured at 145 kg. All other aspects of the formulation and manufacturing process were otherwise equivalent. The four batches were packed in the same commercial configuration: 28 count, 100 mL HPDE bottle with 1 g silica gel desiccant canister and a polyester fiber coil. […] Moreover, for Batch A, the amount dissolved at 30 min remained between 98 and 100% for sofosbuvir, between 90 and 92% for velpatasvir SSD, and between 89 and 93% for voxilaprevir SSD. […] For Batch D, the amount dissolved at 30 min remained at 100% for sofosbuvir, between 90 and 91% for velpatasvir SSD, and between 89 and 91% for voxilaprevir SSD. Release of velpatasvir SSD and voxilaprevir SSD from the sofosbuvir/velpatasvir SSD/voxilaprevir SSD tablets associated with all four Batches was complete after 60 minutes.

[2] = as above; type: physicochemical; remark: listed apart in the source

## CC(C)OC(=O)C(C)N[P@](=O)(OC[C@H]1O[C@@H](n2ccc(=O)[nH]c2=O)[C@](C)(F)[C@@H]1O)Oc1ccccc1 (stereo in doubt) [Sofosbuvir, (S)-isopropyl 2-(((S)-(((2R,3R,4R,5R)-5-(2,4-dioxo-3,4-dihydropyrimidin-1(2H)-yl)-4-fluoro-3-hydroxy-4-methyltetrahydrofuran-2-yl)methoxy)(phenoxy)phosphoryl)amino)propanoate]
[1]; Batch C tablets, closed 1 g desiccant, 30° C./75% RH, 6 months
  Dissolved at 30 min (%): 99%
[1]; Batch C tablets, closed 1 g desiccant, 40° C./75% RH, 1 month
  Dissolved at 30 min (%): 100%
[1]; Batch C tablets, closed 1 g desiccant, Initial, time 0
  Dissolved at 30 min (%): 99%
[1]; tablets Batch A, 30° C./75% RH, 6 mo
  Dissolved at 30 min (%): 100%
[1]; tablets Batch A, 40° C./75% RH, 3 mo
  Dissolved at 30 min (%): 99%
[1]; tablets Batch A, Initial, 0 mo
  Dissolved at 30 min (%): 98%
[1]; tablets Batch B, 40° C./75% RH, 6 mo
  Dissolved at 30 min (%): 98%
[1]; tablets Batch D
  amount dissolved at 30 min: 100%
[1]; tablets Batch D, 40° C./75% RH, 1 mo
  Dissolved at 30 min (%): 100%
[2]; Batch C tablets, closed 1 g desiccant, 25° C./60% RH, 6 months
  Dissolved at 30 min (%): 99%
[2]; Batch C tablets, closed 1 g desiccant, 30° C./75% RH, 3 months
  Dissolved at 30 min (%): 99%
[2]; Batch C tablets, closed 1 g desiccant, 40° C./75% RH, 3 months
  Dissolved at 30 min (%): 100%
[2]; Batch C tablets, closed 1 g desiccant, 40° C./75% RH, 6 months
  Dissolved at 30 min (%): 99%
[2]; Lot A tablets (super-potent VEL SSD, super-potent VOX SSD), Initial, time 0
  Dissolved at 30 min (%): 100%
[2]; Lot A tablets (super-potent VEL SSD, super-potent VOX SSD), closed, 1 g desiccant, 25° C./60% RH, 12 weeks
  Dissolved at 30 min (%): 99%
[2]; Lot A tablets (super-potent VEL SSD, super-potent VOX SSD), closed, 1 g desiccant, 40° C./75% RH, 12 weeks
  Dissolved at 30 min (%): 100%
[2]; Lot B tablets (sub-potent VEL SSD, sub-potent VOX SSD), Initial, time 0
  Dissolved at 30 min (%): 83%
[2]; Lot B tablets (sub-potent VEL SSD, sub-potent VOX SSD), closed, 1 g desiccant, 25° C./60% RH, 12 weeks
  Dissolved at 30 min (%): 82%
[2]; Lot B tablets (sub-potent VEL SSD, sub-potent VOX SSD), closed, 1 g desiccant, 40° C./75% RH, 4 weeks
  Dissolved at 30 min (%): 85%
[2]; Lot B tablets (sub-potent VEL SSD, sub-potent VOX SSD), closed, 1 g desiccant, 40° C./75% RH, 12 weeks
  Dissolved at 30 min (%): 84%
[2]; Lot B tablets (sub-potent VEL SSD, sub-potent VOX SSD), open, no cap, 40° C./75% RH, 4 weeks
  Dissolved at 30 min (%): 100%
[2]; Lot C tablets (sub-potent VEL SSD, super-potent VOX SSD), Initial, time 0
  Dissolved at 30 min (%): 99%
[2]; Lot C tablets (sub-potent VEL SSD, super-potent VOX SSD), closed, 1 g desiccant, 25° C./60% RH, 12 weeks
  Dissolved at 30 min (%): 98%
[2]; Lot C tablets (sub-potent VEL SSD, super-potent VOX SSD), closed, 1 g desiccant, 40° C./75% RH, 4 weeks
  Dissolved at 30 min (%): 100%
[2]; Lot C tablets (sub-potent VEL SSD, super-potent VOX SSD), closed, 1 g desiccant, 40° C./75% RH, 12 weeks
  Dissolved at 30 min (%): 98%
[2]; Lot C tablets (sub-potent VEL SSD, super-potent VOX SSD), open, no cap, 40° C./75% RH, 4 weeks
  Dissolved at 30 min (%): 99%
[2]; Lot D tablets (super-potent VEL SSD, sub-potent VOX SSD), closed, 1 g desiccant, 25° C./60% RH, 12 weeks
  Dissolved at 30 min (%): 98%
[2]; Lot D tablets (super-potent VEL SSD, sub-potent VOX SSD), closed, 1 g desiccant, 40° C./75% RH, 4 weeks
  Dissolved at 30 min (%): 98%
[2]; Lot D tablets (super-potent VEL SSD, sub-potent VOX SSD), closed, 1 g desiccant, 40° C./75% RH, 12 weeks
  Dissolved at 30 min (%): 98%
[2]; Lot D tablets (super-potent VEL SSD, sub-potent VOX SSD), open, no cap, 40° C./75% RH, 4 weeks
  Dissolved at 30 min (%): 99%
[2]; SSD potency tablets Lot B, after 4 weeks open at 40° C./75% RH
  dissolution at 30 minutes: 100%
[2]; tablet Lots A and B made with different sofosbuvir particle size distributions
  released at 30 minutes: 101%
[2]; tablets Batch A, 25° C./60% RH, 3 mo
  Dissolved at 30 min (%): 98%
[2]; tablets Batch A, 25° C./60% RH, 6 mo
  Dissolved at 30 min (%): 98%
[2]; tablets Batch A, 30° C./75% RH, 3 mo
  Dissolved at 30 min (%): 98%
[2]; tablets Batch A, 40° C./75% RH, 1 mo
  Dissolved at 30 min (%): 98%
[2]; tablets Batch A, 40° C./75% RH, 6 mo
  Dissolved at 30 min (%): 100%
[2]; tablets Batch B, 25° C./60% RH, 3 mo
  Dissolved at 30 min (%): 99%
[2]; tablets Batch B, 25° C./60% RH, 6 mo
  Dissolved at 30 min (%): 99%
[2]; tablets Batch B, 30° C./75% RH, 3 mo
  Dissolved at 30 min (%): 99%
[2]; tablets Batch B, 30° C./75% RH, 6 mo
  Dissolved at 30 min (%): 99%
[2]; tablets Batch B, 40° C./75% RH, 1 mo
  Dissolved at 30 min (%): 100%
[2]; tablets Batch B, 40° C./75% RH, 3 mo
  Dissolved at 30 min (%): 100%
[2]; tablets Batch B, Initial, 0 mo
  Dissolved at 30 min (%): 99%
[2]; tablets Batch D, Initial, 0 mo
  Dissolved at 30 min (%): 100%
[2]; tablets from VEL SSD 7.0% / VOX SSD 3.2% water content, Initial, time 0
  Dissolved at 30 min (%): 100%
[2]; tablets from VEL SSD 7.0% / VOX SSD 3.2% water content, closed, 1 g desiccant, 25° C./60% RH, 12 weeks
  Dissolved at 30 min (%): 98%
[2]; tablets from VEL SSD 7.0% / VOX SSD 3.2% water content, closed, 1 g desiccant, 40° C./75% RH, 12 weeks
  Dissolved at 30 min (%): 99%
[2]; tablets from VEL SSD 7.0% / VOX SSD 3.2% water content, open, no desiccant, 40° C./75% RH, 4 weeks
  Dissolved at 30 min (%): 100%
[2]; tablets from copovidone with 544 ppm (VEL SSD) / 655 ppm (VOX SSD) peroxides, Initial, time 0
  Dissolved at 30 min (%): 99%
[2]; tablets from copovidone with 544 ppm (VEL SSD) / 655 ppm (VOX SSD) peroxides, closed, 1 g desiccant, 25° C./60% RH, 12 weeks
  Dissolved at 30 min (%): 99%
[2]; tablets from copovidone with 544 ppm (VEL SSD) / 655 ppm (VOX SSD) peroxides, closed, 1 g desiccant, 40° C./75% RH, 4 weeks
  Dissolved at 30 min (%): 99%
[2]; tablets from copovidone with 544 ppm (VEL SSD) / 655 ppm (VOX SSD) peroxides, closed, 1 g desiccant, 40° C./75% RH, 12 weeks
  Dissolved at 30 min (%): 99%
[2]; tablets from copovidone with 544 ppm (VEL SSD) / 655 ppm (VOX SSD) peroxides, open, no desiccant, 40° C./75% RH, 4 weeks
  Dissolved at 30 min (%): 100%
[2]; tablets, desiccant study, closed, 1 g desiccant, 40° C./75% RH, 4 weeks
  Dissolved at 30 min (%): 99%
[2]; tablets, desiccant study, closed, 1 g desiccant, 40° C./75% RH, 12 weeks
  Dissolved at 30 min (%): 99%
[2]; tablets, desiccant study, closed, 1 g desiccant, 40° C./75% RH, 24 weeks
  Dissolved at 30 min (%): 100%
[2]; tablets, desiccant study, closed, no desiccant, 25° C./60% RH, 12 weeks
  Dissolved at 30 min (%): 99%
[2]; tablets, desiccant study, closed, no desiccant, 40° C./75% RH, 12 weeks
  Dissolved at 30 min (%): 99%

From patent publication US10912814B2, “Combination formulation of three antiviral compounds” (priority 2016, dated 2021)
